This test has as its target T1, Prostaglandin D2 receptor 2 (Homo sapiens, UniProt Q9Y5Y4).
T1 sequence (Q9Y5Y4 whole entry): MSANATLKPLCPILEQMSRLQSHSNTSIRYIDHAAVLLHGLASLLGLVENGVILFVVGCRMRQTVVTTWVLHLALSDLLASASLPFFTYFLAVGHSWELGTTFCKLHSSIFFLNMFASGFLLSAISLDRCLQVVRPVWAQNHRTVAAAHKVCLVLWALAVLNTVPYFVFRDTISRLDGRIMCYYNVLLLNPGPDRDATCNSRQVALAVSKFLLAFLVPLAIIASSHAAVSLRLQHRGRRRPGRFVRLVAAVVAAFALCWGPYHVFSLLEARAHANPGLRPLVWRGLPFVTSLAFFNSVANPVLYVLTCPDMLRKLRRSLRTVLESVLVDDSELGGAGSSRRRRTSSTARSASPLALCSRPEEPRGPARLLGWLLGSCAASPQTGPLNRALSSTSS
The experiment in a line: Radioligand Binding Assay: Radioligand binding assay using CRTH2.

One may read the Ki as the dissociation constant of the complex between target and ligand, obtained from inhibition or displacement. Read a high Ki as a looser hold on the target.

Regarding `Cc1c(Cc2cccnc2S(=O)(=O)c2ccc(F)cc2)c2cc(F)ccc2n1CC(=O)O`, the affinity, expressed as Ki, was 2 nM. For `Cc1c(Cc2cccnc2S(=O)(=O)c2ccc(Cl)cc2)c2cc(F)ccc2n1CC(=O)O`, the affinity, expressed as Ki, was 7 nM.

Values taken from ChEMBL document CHEMBL3639129, “Compounds having CRTH2 antagonist activity” (2013).
